Experiment [1] deals with T1, human cloned CHRM4 receptor (Homo sapiens, UniProt P08173).
T1 construct: expressed in transfected cells; host or cells: CHO-K1 (M4_CHO)
T1 sequence (P08173 1-479): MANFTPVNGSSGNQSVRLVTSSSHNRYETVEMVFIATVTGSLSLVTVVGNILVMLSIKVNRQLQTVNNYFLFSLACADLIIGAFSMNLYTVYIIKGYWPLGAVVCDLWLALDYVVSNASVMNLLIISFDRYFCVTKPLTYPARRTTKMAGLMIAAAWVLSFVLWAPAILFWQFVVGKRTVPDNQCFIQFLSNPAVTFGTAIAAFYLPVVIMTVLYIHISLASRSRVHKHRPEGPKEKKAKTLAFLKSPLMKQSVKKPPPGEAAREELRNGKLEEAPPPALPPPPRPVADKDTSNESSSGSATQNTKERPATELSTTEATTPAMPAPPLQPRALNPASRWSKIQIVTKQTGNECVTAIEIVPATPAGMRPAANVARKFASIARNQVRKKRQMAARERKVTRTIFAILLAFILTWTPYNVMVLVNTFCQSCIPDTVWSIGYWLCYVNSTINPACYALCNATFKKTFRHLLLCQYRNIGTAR
Put plainly: CHRM4 Ca++ Flux Assay (M4_CHO cells, agonist mode). In kind it is cell-based. The note with it: for M4 FDSS PA % / Emax: Percent Activity (PA); for EC50: geometric mean if tested more than once, read-out: M4 FDSS EC50; for Emax: read-out: M4 FDSS PA %. Put shortly:
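CHO-K1 cells stably expressing human M4 were dye-loaded, then held 60 min at RT in Ca/Mg-free HBSS buffer with 20 μM ATP. Ca++ traces were recorded over 3 min after an 11-point compound series in triplicate, agonist mode, with a four-parameter fit. Percent activity is relative to the carbachol EC100; repeat tests are geometric means.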

For experiment [2], the target named is T2, human cloned CHRM2 receptor (Homo sapiens, UniProt P08172).
T2 construct: expressed in transfected cells; host or cells: CHO-K1 (M2_CHO)
T2 sequence (P08172 1-466): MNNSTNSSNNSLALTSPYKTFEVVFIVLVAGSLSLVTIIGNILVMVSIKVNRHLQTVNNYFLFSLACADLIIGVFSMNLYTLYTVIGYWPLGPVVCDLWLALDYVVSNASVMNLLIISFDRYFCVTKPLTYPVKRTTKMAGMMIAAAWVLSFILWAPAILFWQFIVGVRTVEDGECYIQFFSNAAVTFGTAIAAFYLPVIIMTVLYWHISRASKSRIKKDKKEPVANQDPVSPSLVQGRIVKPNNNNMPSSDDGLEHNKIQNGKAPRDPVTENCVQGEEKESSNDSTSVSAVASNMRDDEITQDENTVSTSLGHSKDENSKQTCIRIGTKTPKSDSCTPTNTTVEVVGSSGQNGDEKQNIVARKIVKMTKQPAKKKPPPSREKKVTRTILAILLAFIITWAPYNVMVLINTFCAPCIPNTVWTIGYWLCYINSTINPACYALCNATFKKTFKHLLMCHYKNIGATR
Put plainly: CHRM2 Ca++ Flux Assay (M2_CHO cells, agonist mode). The class given is cell-based. The following applies: M2 CHO cells; for EC50: agonist mode, geometric mean if tested more than once, read-out: M2 FDSS EC50; for M2 FDSS PA % / Emax: Percent Activity (PA) measured to EC100 of Carbachol; for Emax: read-out: M2 FDSS PA %. An outline of the steps:
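CHO-K1 cells stably expressing human CHRM2 were plated overnight at 12K cells/well and loaded with Ca++ dye for 1–2 h. They were then held 60 minutes in HBSS −Ca/−Mg, 20 mM HEPES, 2.5 mM probenecid, 20 μM ATP. Agonist-mode Ca++ flux was read over 3 minutes. Four-parameter fits of triplicates gave percent activity relative to carbachol EC100.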

As a reminder, the EC50 is the concentration at which the effect is half-maximal.

For `Fc1ccc([C@H]2CCOC2)c(C2CCN([C@@H]3COC4(C3)CN(c3nnco3)C4)CC2)c1` (single isomer, unassigned) [Example 3E, (S)-7-(4-(5-fluoro-2-((R)-tetrahydrofuran-3-yl)phenyl)piperidin-1-yl)-2-(1,3,4-oxadiazol-2-yl)-5-oxa-2-azaspiro[3.4]octane or (S)-7-(4-(5-fluoro-2-((S)-tetrahydrofuran-3-yl)phenyl)piperidin-1-yl)-2-(1,3,4-oxadiazol-2-yl)-5-oxa-2-azaspiro[3.4]octane], in experiment [1], the “M4 FDSS PA %” value is reported as 86% and the 50% effective concentration (EC50) was 28 nM. Moreover, in experiment [2], the 50% effective concentration (EC50) came to 404 nM and the “M2 FDSS PA %” value worked out at 60%.

`CC(C)(O)[C@H]1C[C@H](Oc2ccc(F)cc2C2CCN([C@@H]3COC4(C3)CN(c3nnco3)C4)CC2)C1` (single isomer, unassigned) [Example 2V, 2-((1S,3r)-3-(2-(1-((S)-2-(1,3,4-oxadiazol-2-yl)-5-oxa-2-azaspiro[3.4]octan-7-yl)piperidin-4-yl)-4-fluorophenoxy)cyclobutyl)propan-2-ol or 2-((1R,3s)-3-(2-(1-((S)-2-(1,3,4-oxadiazol-2-yl)-5-oxa-2-azaspiro[3.4]octan-7-yl)piperidin-4-yl)-4-fluorophenoxy)cyclobutyl)propan-2-ol]: in experiment [1], the “M4 FDSS PA %” value was determined as 75% and the 50% effective concentration (EC50) worked out at 94 nM. In experiment [2], the 50% effective concentration (EC50) stood at 1080 nM and the “M2 FDSS PA %” value was 28%.

Regarding `C[C@H](Oc1ccc(F)cc1C1CCN([C@@H]2COC3(C2)CN(c2nnco2)C3)CC1)C1CCOCC1` [Example 2X, (S)-7-(4-(5-fluoro-2-((S)-1-(tetrahydro-2H-pyran-4-yl)ethoxy)phenyl)piperidin-1-yl)-2-(1,3,4-oxadiazol-2-yl)-5-oxa-2-azaspiro[3.4]octane or(S)-7-(4-(5-fluoro-2-((R)-1-(tetrahydro-2H-pyran-4-yl)ethoxy)phenyl)piperidin-1-yl)-2-(1,3,4-oxadiazol-2-yl)-5-oxa-2-azaspiro[3.4]octane], in experiment [1], the “M4 FDSS PA %” value is reported as 40% and the half-maximal effective concentration (EC50) is 1780 nM. For the same compound, in experiment [2], the EC50 came to 11200 nM and the “M2 FDSS PA %” value is given as 23%.

Regarding `c1ccc(C2CCN([C@@H]3COC4(C3)CN(c3ncco3)C4)CC2)c(OC2COC2)c1` [Example 4C, (S)-2-(oxazol-2-yl)-7-(4-(2-(oxetan-3-yloxy)phenyl)piperidin-1-yl)-5-oxa-2-azaspiro[3.4]octane], in experiment [1], the Emax stood at 80% and the EC50 came to 7 nM. In addition, in experiment [2], the EC50 was 433 nM and the Emax came to 38%.

`Fc1ccc(OC2COC2)c(C2CCN([C@@H]3COC4(C3)CN(c3nncs3)C4)CC2)c1` [Example 5G, (S)-7-(4-(5-fluoro-2-(oxetan-3-yloxy)phenyl)piperidin-1-yl)-2-(1,3,4-thiadiazol-2-yl)-5-oxa-2-azaspiro[3.4]octane]: in experiment [1], the Emax amounted to 76% and the EC50 amounted to 13 nM. Moreover, in experiment [2], the 50% effective concentration (EC50) amounted to 657 nM and the Emax was 35%.

On to `CC(C)(O)[C@H]1C[C@@H](Oc2ccc(F)cc2C2CCN([C@@H]3COC4(C3)CN(c3ncco3)C4)CC2)C1` (single isomer, unassigned) [Example 4T, 2-((1R,3s)-3-(4-fluoro-2-(1-((S)-2-(oxazol-2-yl)-5-oxa-2-azaspiro[3.4]octan-7-yl)piperidin-4-yl)phenoxy)cyclobutyl)propan-2-ol or 2-((1S,3r)-3-(4-fluoro-2-(1-((S)-2-(oxazol-2-yl)-5-oxa-2-azaspiro[3.4]octan-7-yl)piperidin-4-yl)phenoxy)cyclobutyl)propan-2-ol], for which, in experiment [1], the “M4 FDSS PA %” value is given as 63% and the concentration for a half-maximal effect (EC50) worked out at 25 nM. Also, in experiment [2], the concentration for a half-maximal effect (EC50) was 17700 nM and the “M2 FDSS PA %” value is given as 43%.

For `OC[C@H]1C[C@H](Oc2ccc(F)cc2C2CCN([C@@H]3COC4(C3)CN(c3nnco3)C4)CC2)C1` (single isomer, unassigned) [Example 2HH, ((1S,3r)-3-(2-(1-((S)-2-(1,3,4-oxadiazol-2-yl)-5-oxa-2-azaspiro[3.4]octan-7-yl)piperidin-4-yl)-4-fluorophenoxy)cyclobutyl)methanol or ((1R,3s)-3-(2-(1-((S)-2-(1,3,4-oxadiazol-2-yl)-5-oxa-2-azaspiro[3.4]octan-7-yl)piperidin-4-yl)-4-fluorophenoxy)cyclobutyl)methanol], in experiment [1], the “M4 FDSS PA %” value worked out at 85% and the EC50 turned out to be 124 nM. In experiment [2], the EC50 stood at 6560 nM and the “M2 FDSS PA %” value is on record as 25%.

Turning to `c1ccc(C2CCN([C@@H]3COC4(C3)CN(c3nnco3)C4)CC2)c(CC2CCOCC2)c1` [Example 3G, (S)-2-(1,3,4-oxadiazol-2-yl)-7-(4-(2-((tetrahydro-2H-pyran-4-yl)methyl)phenyl)piperidin-1-yl)-5-oxa-2-azaspiro[3.4]octane], in experiment [1], the Emax stood at 82% and the half-maximal effective concentration (EC50) amounted to 185 nM. Besides, in experiment [2], the concentration giving a half-maximal response (EC50) stood at 3660 nM and the Emax was 16%.

In the case of `O[C@H]1CC[C@@H](c2ccc(F)cc2C2CCN([C@@H]3COC4(C3)CN(c3nnco3)C4)CC2)CC1` (single isomer, unassigned) [Example 3H, (1R,4s)-4-(2-(1-((S)-2-(1,3,4-oxadiazol-2-yl)-5-oxa-2-azaspiro[3.4]octan-7-yl)piperidin-4-yl)-4-fluorophenyl)cyclohexan-1-ol or (1S,4r)-4-(2-(1-((S)-2-(1,3,4-oxadiazol-2-yl)-5-oxa-2-azaspiro[3.4]octan-7-yl)piperidin-4-yl)-4-fluorophenyl)cyclohexan-1-ol], in experiment [1], the “M4 FDSS PA %” value was 83.2% and the EC50 turned out to be 10 nM. Moreover, in experiment [2], the concentration for a half-maximal effect (EC50) was 2460 nM and the “M2 FDSS PA %” value worked out at 30%.

Consider `Fc1ccc(O[C@H]2CCOC2)c(C2CCN([C@@H]3COC4(C3)CN(c3nncs3)C4)CC2)c1` [Example 5O, (S)-7-(4-(5-fluoro-2-(((S)-tetrahydrofuran-3-yl)oxy)phenyl)piperidin-1-yl)-2-(1,3,4-thiadiazol-2-yl)-5-oxa-2-azaspiro[3.4]octane], for which, in experiment [1], the Emax is 74% and the EC50 came out at 71 nM. Besides, in experiment [2], the 50% effective concentration (EC50) was determined as 1170 nM and the Emax came to 33%.

`Fc1ccc(OC[C@@H]2COCCO2)c(C2CCN([C@@H]3COC4(C3)CN(c3nncs3)C4)CC2)c1` [Example 5L, (S)-7-(4-(2-(((S)-1,4-dioxan-2-yl)methoxy)-5-fluorophenyl)piperidin-1-yl)-2-(1,3,4-thiadiazol-2-yl)-5-oxa-2-azaspiro[3.4]octane]: in experiment [1], the Emax was 79% and the EC50 amounted to 38 nM. Moreover, in experiment [2], the EC50 is 456 nM and the Emax is 32%.

As to `COc1cc(F)ccc1C1CCN([C@@H]2COC3(C2)CN(c2nncs2)C3)CC1` [Example 5T, (S)-7-(4-(4-fluoro-2-methoxyphenyl)piperidin-1-yl)-2-(1,3,4-thiadiazol-2-yl)-5-oxa-2-azaspiro[3.4]octane], in experiment [1], the Emax was determined as 61% and the concentration giving a half-maximal response (EC50) came out at 208 nM. Further, in experiment [2], the concentration giving a half-maximal response (EC50) was determined as 20000 nM and the Emax was 35%.

For the compound `Fc1ccc(C2CCN([C@@H]3COC4(C3)CN(c3ncco3)C4)CC2)c(OC2COC2)c1` [Example 4S, (S)-7-(4-(4-fluoro-2-(oxetan-3-yloxy)phenyl)piperidin-1-yl)-2-(oxazol-2-yl)-5-oxa-2-azaspiro[3.4]octane], in experiment [1], the Emax came to 74% and the EC50 amounted to 21 nM. Also, in experiment [2], the EC50 was > 25000 nM and the Emax worked out at 31%.

Turning to `c1ccc(C2CCN([C@@H]3COC4(C3)CN(c3ncco3)C4)CC2)c(C2CCOCC2)c1` [Example 4V, (S)-2-(oxazol-2-yl)-7-(4-(2-(tetrahydro-2H-pyran-4-yl)phenyl)piperidin-1-yl)-5-oxa-2-azaspiro[3.4]octane], the figures for the Emax in experiment [1] and in experiment [2] were 82% and 14%, respectively. The figures for the 50% effective concentration (EC50) in experiment [1] and in experiment [2] were 46 nM and 10700 nM, respectively.

The values above are taken from patent US11485742B2, “2-azaspiro[3.4]octane derivatives as M4 agonists” (NOVARTIS AG, priority 2019, dated 2022).
